This is an account of results in ChEMBL document CHEMBL5634128, “Development of chalcone-like derivatives and their biological and mechanistic investigations as novel influenza nuclear export inhibitors” (Eur J Med Chem, 2023).

Calls of active or inactive are those of the source. The calls are words filed in the database; no cut-off is given here. Where only a bound is given, the exact number is not on record here.

Data set [1] in a line: Cytotoxicity against chicken embryo fibroblast cells assessed as reduction in cell growth at 50 uM by CCK-8 assay relative to control. In kind it is toxicity, cell-based, Gallus gallus. The following applies: chicken embryo fibroblast cells, read-out: Activity. In general terms: Tetrazolium assays rely on reduction of a dye to a coloured formazan, in cell work by metabolically active cells.

Data set [2] relates to Influenza A virus. Description: Anti-influenza activity against Influenza A virus A/Goose/Guangdong/SH7/2013 (H5N1) infected in chicken embryo fibroblast assessed as inhibition of virus-induced cytopathic effect. The format is functional.
The target of data set [3] is Exportin-1 (Homo sapiens) (UniProt O14980). Description: Inhibition of CRM1-mediated nuclear export in human A549 cells assessed as distribution of GFP-tagged AID in nucleus at 20 uM administered for 12 hrs and measured after 24 hrs by fluorescence microscopy analysis. In kind it is cell-based. The following applies: time 36.0 hrs.
Chain of Exportin-1 (Homo sapiens) (O14980 whole entry): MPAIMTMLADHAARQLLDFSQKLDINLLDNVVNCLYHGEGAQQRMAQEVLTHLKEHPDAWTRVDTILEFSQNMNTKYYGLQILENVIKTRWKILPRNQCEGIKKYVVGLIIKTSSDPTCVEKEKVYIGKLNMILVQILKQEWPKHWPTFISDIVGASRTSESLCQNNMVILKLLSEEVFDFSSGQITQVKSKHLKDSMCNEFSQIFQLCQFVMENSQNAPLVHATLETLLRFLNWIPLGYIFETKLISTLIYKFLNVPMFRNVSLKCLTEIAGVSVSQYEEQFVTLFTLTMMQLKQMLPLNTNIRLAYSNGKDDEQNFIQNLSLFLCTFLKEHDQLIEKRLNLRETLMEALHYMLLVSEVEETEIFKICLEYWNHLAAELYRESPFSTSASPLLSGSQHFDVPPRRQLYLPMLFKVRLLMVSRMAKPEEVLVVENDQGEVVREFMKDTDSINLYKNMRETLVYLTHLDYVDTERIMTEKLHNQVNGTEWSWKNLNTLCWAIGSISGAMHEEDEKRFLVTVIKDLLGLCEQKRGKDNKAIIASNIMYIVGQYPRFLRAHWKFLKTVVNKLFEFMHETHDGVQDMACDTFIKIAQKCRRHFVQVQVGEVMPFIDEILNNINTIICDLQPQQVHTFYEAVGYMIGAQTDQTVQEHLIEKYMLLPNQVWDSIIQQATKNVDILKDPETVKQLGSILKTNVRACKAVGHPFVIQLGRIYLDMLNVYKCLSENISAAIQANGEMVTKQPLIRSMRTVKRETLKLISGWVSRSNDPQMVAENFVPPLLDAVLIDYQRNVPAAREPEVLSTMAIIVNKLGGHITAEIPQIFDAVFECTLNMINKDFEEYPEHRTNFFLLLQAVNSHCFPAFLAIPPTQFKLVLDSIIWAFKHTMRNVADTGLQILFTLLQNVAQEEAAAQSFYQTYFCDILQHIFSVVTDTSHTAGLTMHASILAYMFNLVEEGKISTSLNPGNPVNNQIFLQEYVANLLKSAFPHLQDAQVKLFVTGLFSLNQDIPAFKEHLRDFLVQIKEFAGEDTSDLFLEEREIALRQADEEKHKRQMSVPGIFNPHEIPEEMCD
Data set [4] concerns Influenza A virus. Description: Anti-influenza activity against Influenza A virus H5N1 infected in chicken embryo fibroblast assessed as reduction in viral growth. The format is functional, organism-based.
A short description of data set [5]: Cytotoxicity against chicken embryo fibroblast cells assessed as reduction in cell growth by CCK-8. The format is toxicity, cell-based, Gallus gallus.
Data set [6] concerns Influenza A virus. Description: Anti-influenza activity against Influenza A virus H5N8 infected in chicken embryo fibroblast assessed as reduction in viral growth. In kind it is functional, organism-based.
The target in the next data set is Nucleoprotein (Influenza A virus (strain A/Wilson-Smith/1933 H1N1), UniProt P15682). Description: Binding affinity to influenza A virus Nucleoprotein assessed as dissociation constant by SPR analysis.
Chain of Nucleoprotein (P15682 whole entry): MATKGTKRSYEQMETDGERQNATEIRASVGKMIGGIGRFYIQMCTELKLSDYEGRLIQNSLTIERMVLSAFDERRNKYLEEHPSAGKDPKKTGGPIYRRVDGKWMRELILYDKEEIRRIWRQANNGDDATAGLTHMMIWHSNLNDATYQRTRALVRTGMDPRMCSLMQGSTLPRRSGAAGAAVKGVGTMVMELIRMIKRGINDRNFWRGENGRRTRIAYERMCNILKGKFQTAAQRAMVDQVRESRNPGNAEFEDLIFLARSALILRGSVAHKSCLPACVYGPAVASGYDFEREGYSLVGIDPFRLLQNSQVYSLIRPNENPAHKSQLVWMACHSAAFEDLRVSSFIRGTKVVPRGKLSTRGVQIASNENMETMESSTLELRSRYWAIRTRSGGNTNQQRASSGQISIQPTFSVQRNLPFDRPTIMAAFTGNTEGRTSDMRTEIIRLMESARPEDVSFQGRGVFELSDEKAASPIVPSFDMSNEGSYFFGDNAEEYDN
Data set [7] can be described thus: Binding affinity to influenza A virus M1 assessed as dissociation constant by SPR analysis. A general note: Surface plasmon resonance follows binding to a sensor surface in real time, without labels.
Data set [8] can be described thus: Binding affinity to influenza A virus NS2 assessed as dissociation constant by SPR analysis.
Data set [9] relates to Influenza A virus. Description: Anti-influenza activity against Influenza A virus pdm09 infected in chicken embryo fibroblast assessed as reduction in viral growth. The format is functional, organism-based.
The subject of data set [10] is Influenza A virus. Description: Anti-influenza activity against Influenza A virus B/Victoria infected in chicken embryo fibroblast assessed as reduction in viral growth. The format is functional, organism-based.
Data set [11] relates to Influenza A virus. Description: Anti-influenza activity against Influenza A virus A/Brisbane/10/2007 infected in chicken embryo fibroblast assessed as reduction in viral growth. The format is functional, organism-based. The following applies: A/Brisbane/10/2007, Fibroblast.
Data set [12] has as its system Influenza A virus. Nature of the data set: Anti-influenza activity against Influenza A virus A/PR/8/34 infected in chicken embryo fibroblast assessed as reduction in viral growth. The format is functional, organism-based. The following applies: A/PR/8/34, Fibroblast.
Data set [13] deals with Influenza A virus. Description: Anti-influenza activity against Influenza A virus B/Yamagata infected in chicken embryo fibroblast assessed as reduction in viral growth. The format is functional, organism-based.

In general, EC50 refers to the concentration at which the effect is half-maximal. For orientation: CC50 means the concentration that lowers cell viability or growth by half. The Kd is the concentration at which binding is half-saturated.

For the compound `COc1cccc(OC)c1/C=C/C(=O)/C=C/c1ccc(-c2nccs2)cc1`, the percent cell viability relative to control at 50 µM in data set [1] turned out to be 106%. The “inhibition (INH)” value in the data set on Influenza A virus [2] was found to be 60.3%.
Taken in the same sequence, the figures for `COc1cccc(OC)c1C(=O)C1OC1c1ccc([N+](=O)[O-])cc1` (centres undefined) were 61% and 13.17%.
Consider `COc1cccc(OC)c1C(=O)CCc1ccc(C(C)(C)C)cc1`, for which, in [1], the percent cell viability relative to control at 50 µM was found to be 96.4%. Further, the “inhibition (INH)” value in the data set on Influenza A virus [2] is on record as 13.17%.
Consider `COc1cccc(OC)c1C(=O)CCc1nc(C)c(C)nc1C`, for which the percent cell viability relative to control at 50 µM in data set [1] is 71%. Besides, the “inhibition (INH)” value in the data set on Influenza A virus [2] came to 18.14%.
On to `CCC(=C/[C@H](C)C/C=C/C(C)=C/[C@@H](C)C(=O)[C@@H](C)[C@H](O)[C@@H](C)C/C(C)=C/C(=O)O)/C=C/[C@@H]1OC(=O)C=C[C@@H]1C`, for which the inhibition entry in data set [3] is “Active”.
For `COc1cccc(OC)c1/C=C/C(=O)/C=C/c1ccc(-c2ccccc2)cc1C`, the percent cell viability relative to control at 50 µM in [1] was determined as 110%. Besides, in the data set with Influenza A virus [2], the “inhibition (INH)” value came out at 23.04%.
Taken in the same sequence, the figures for `COc1cccc(OC)c1/C=C1\CCC/C(=C\c2nc(C)c(C)nc2C)C1=O` were 72.4% and 57.06%.
Taken in the same sequence, the figures for `COc1cccc(OC)c1/C=C/C(=O)/C=C/c1ccc(N2CCCCC2)cc1` were 110% and 60.7%.
Taken in the same sequence, the figures for `COc1cccc(OC)c1C(=O)CCc1ccc([N+](=O)[O-])cc1` were 61% and 2.26%.
As to `COc1cccc(OC)c1/C=C/C(=O)/C=C/c1cccc(N2CCOCC2)c1`, in [1], the percent cell viability relative to control at 50 µM worked out at 69.5%. In addition, in the data set with Influenza A virus [2], the “inhibition (INH)” value turned out to be 71.53%.
In the case of `COc1cccc(OC)c1/C=C/C(=O)/C=C/c1ccc(-c2cccnc2)cc1`, the percent cell viability relative to control at 50 µM in [1] worked out at 111%. The “inhibition (INH)” value with Influenza A virus [2] came out at 25.98%.
For `COc1cccc(OC)c1C(=O)C1OC1c1ccccn1` (centres undefined), in that order: 71.8% and 27.71%.
For `COc1cccc(OC)c1/C=C/C(=O)/C=C/c1ccc(N2CCCC2)cc1`, in that order: 133% and 62.89%.
Regarding `COc1cccc(OC)c1/C=C/C(=O)/C=C/c1ccc(N(C)C)cc1`, the figures for the EC50 with Influenza A virus [4] and in the data set with Influenza A virus [6] were 20.9 µM and 16 µM, respectively. Also, the CC50 in data set [5] is above 100 µM. The percent cell viability relative to control at 50 µM in [1] stood at 110%. For the same compound, the “inhibition (INH)” value with Influenza A virus [2] is reported as 75.34%.
In the case of `COc1cccc(OC)c1C(=O)N/N=C/c1ccccn1`, the percent cell viability relative to control at 50 µM in [1] worked out at 81.9%. In the data set with Influenza A virus [2], the “inhibition (INH)” value came to 13.78%.
Taken in the same sequence, the figures for `COc1ccc(/C=C/C(=O)/C=C/c2c(OC)cccc2OC)cc1-c1ccccc1` were 85% and 35.03%.
Taken in the same sequence, the figures for `COc1cccc(OC)c1C(=O)C1OC1c1ccc(C(C)(C)C)cc1` (centres undefined) were 85.8% and 28.99%.
For `COc1cccc(OC)c1C(=O)CCc1ccc(C)cc1`, in that order: 65% and 29.55%.
Regarding `COc1cccc(OC)c1/C=C/C(=O)/C=C/c1ccc(-c2ccccc2)cc1`, the percent cell viability relative to control at 50 µM in data set [1] was 104%. For the same compound, the “inhibition (INH)” value in the data set on Influenza A virus [2] is reported as 51.69%.
For `CCCOc1ccc(/C=C/C(=O)/C=C/c2c(OC)cccc2OC)cc1`, in that order: 149% and 41.16%.
Taken in the same sequence, the figures for `COc1cccc(OC)c1/C=C/C(=O)/C=C/c1ccc([N+](=O)[O-])cc1` were 99.5% and 70.62%.
For the compound `Cc1onc(-c2ccccc2)c1C(=O)N1CCN(c2ccc([N+](=O)[O-])cc2Cl)CC1` [NUCLEOZIN], the Kd at Nucleoprotein was 0.014 µM; in data set [7], “Not Active”; in [8], “Not Active”.
In the case of `COc1cccc(OC)c1/C=C/C(=O)/C=C/c1nc(C)c(C)nc1C`, the percent cell viability relative to control at 50 µM in data set [1] was determined as 83.8%. Also, the “inhibition (INH)” value with Influenza A virus [2] was 71.53%.
Taken in the same sequence, the figures for `COc1cccc(OC)c1/C=C/C(=O)/C=C/c1ccc(-n2ccnc2)cc1` were 106% and 18.14%.
For `COc1cccc(OC)c1C(=O)C1OC1c1nc(C)c(C)nc1C` (centres undefined), in that order: 64.6% and 5.53%.
Taken in the same sequence, the figures for `COc1cccc(OC)c1/C=C/C(=O)/C=C/c1ccc(N2CCN(C)CC2)cc1` were 94.7% and 57.74%.
For the compound `COc1cccc(OC)c1/C=C/C(=O)/C=C/c1c(C)cc(-c2ccccc2)cc1C`, in data set [1], the percent cell viability relative to control at 50 µM stood at 108%. In addition, the “inhibition (INH)” value in the data set with Influenza A virus [2] was 27.71%.
In the case of `COc1cccc(OC)c1C(=O)N/N=C/c1nc(C)c(C)nc1C`, the percent cell viability relative to control at 50 µM in data set [1] is 85%. In addition, in the data set with Influenza A virus [2], the “inhibition (INH)” value turned out to be 62.26%.
For `COc1ccc(/C=C/C(=O)/C=C/c2c(OC)cccc2OC)cc1`, in that order: 108% and 26.89%.
Taken in the same sequence, the figures for `COc1cccc(OC)c1/C=C/C(=O)/C=C/c1ccccn1` were 110% and 70.92%.
In the case of `COc1cccc(OC)c1C(=O)N/N=C/c1ccc(C(C)(C)C)cc1`, the percent cell viability relative to control at 50 µM in data set [1] came to 57.7%. In the data set with Influenza A virus [2], the “inhibition (INH)” value is 38.93%.
For `COc1cccc(OC)c1/C=C/C(=O)/C=C/c1ccc(C(C)(C)C)cc1`, in that order: 86% and 72.89%.
Taken in the same sequence, the figures for `COc1cccc(OC)c1/C=C/C(=O)/C=C/c1ccc(C)cc1` were 97.3% and 70.3%.
As for `COc1cc(/C=C/C(=O)/C=C/c2c(OC)cccc2OC)ccc1-c1ccccc1`, the percent cell viability relative to control at 50 µM in [1] came out at 126%. Also, the “inhibition (INH)” value with Influenza A virus [2] amounted to 54.77%.
For `COc1cccc(OC)c1/C=C/C(=O)/C=C/c1ccccc1N1CCOCC1`, in that order: 63.3% and 73.17%.
In the case of `COc1cccc(OC)c1/C=C1\CCC/C(=C\c2ccc([N+](=O)[O-])cc2)C1=O`, in data set [1], the percent cell viability relative to control at 50 µM is 66.9%. Besides, the “inhibition (INH)” value with Influenza A virus [2] is listed as 48.07%.
Taken in the same sequence, the figures for `COc1cccc(OC)c1C(=O)CCc1ccccn1` were 74.6% and 27.71%.
For `COc1cccc(OC)c1/C=C1\CCC/C(=C\c2ccc(C)cc2)C1=O`, in that order: 67.2% and 46.7%.
For `COc1cccc(OC)c1/C=C1\CCC/C(=C\c2ccccn2)C1=O`, in that order: 85% and 25.98%.
`COc1cccc(OC)c1C(=O)N/N=C/c1ccc(C)cc1`: the percent cell viability relative to control at 50 µM in data set [1] is 61.2%. Further, the “inhibition (INH)” value in the data set with Influenza A virus [2] worked out at 47.74%.
For `COc1cccc(OC)c1C(=O)C1OC1c1ccc(C)cc1` (centres undefined), the percent cell viability relative to control at 50 µM in [1] was 62.5%. Moreover, in the data set with Influenza A virus [2], the “inhibition (INH)” value was found to be 35.03%.
For `COc1cccc(OC)c1/C=C1\CCC/C(=C\c2ccc(C(C)(C)C)cc2)C1=O`, in that order: 61.1% and 57.57%.
As to `COc1cccc(OC)c1/C=C/C(=O)/C=C/c1ccc(-n2cccn2)cc1`, the percent cell viability relative to control at 50 µM in data set [1] turned out to be 104%. Moreover, in the data set with Influenza A virus [2], the “inhibition (INH)” value is given as 37.85%.
Turning to `COc1cccc(OC)c1C(=O)/C=C/c1nc(C)c(C)nc1C`, the EC50 with Influenza A virus [9] came out at 1.34 µM; in the data set on Influenza A virus [10] it was 3.87 µM; in the data set with Influenza A virus [11] it was 3.69 µM; in the data set with Influenza A virus [4], 7.34 µM; in the data set with Influenza A virus [12], 3.51 µM; in the data set with Influenza A virus [6], 10.8 µM. The concentration giving a half-maximal response (EC50) in the data set with Influenza A virus [13] is 2.47 µM. Besides, the CC50 in data set [5] is below 50 µM. For the same compound, in [1], the percent cell viability relative to control at 50 µM came out at 39.1%.
Take `COc1cccc(OC)c1/C=C/C(=O)/C=C/c1ccc(-c2ccccc2)c(C)c1`: the percent cell viability relative to control at 50 µM in [1] amounted to 113%. In the data set with Influenza A virus [2], the “inhibition (INH)” value is on record as 58.93%.
Taken in the same sequence, the figures for `COc1cccc(OC)c1/C=C/C(=O)/C=C/c1ccc(-n2ccnc2C)cc1` were 61% and 28.99%.
With `CCN(CC)c1ccc(/C=C/C(=O)/C=C/c2c(OC)cccc2OC)cc1`, the EC50 with Influenza A virus [4] amounted to 18.1 µM; with Influenza A virus [6] it was 13.6 µM. The CC50 in data set [5] is above 100 µM. The percent cell viability relative to control at 50 µM in [1] came out at 117%. In addition, the “inhibition (INH)” value in the data set with Influenza A virus [2] is listed as 71.5%.
`COc1cccc(OC)c1C(=O)N/N=C/c1ccc([N+](=O)[O-])cc1`: the percent cell viability relative to control at 50 µM in data set [1] was 71.7%. Further, the “inhibition (INH)” value with Influenza A virus [2] amounted to 50.3%.
